Experimental data: patent publication US5274080A, “Monospecific antibodies useful in evaluating inhibition of polymorphonuclear leukocyte elastase by N-substituted azetidinones” (Merck & Co., Inc., priority 1991, dated 1993)

Test system: antibody R674
Test: Radioimmune assay: displacement of tritium labeled reactivation product from antibody R674
Assay type: binding, rabbit
Conditions: up to 10 μM (the highest concentration tested)
Procedure: Non-antibody-bound radioactive isotope was removed from the reaction mixture by its absorption onto dextran-coated activated charcoal. […] The activated charcoal was then suspended to 3% (w/v) in PBS dextran and allowed to stand overnight, washed once again in PBS dextran and resuspended to 3% (w/v) in PBS dextran and stored at 4° C. Immediately before use in the assay, the dextran-coated activated charcoal was diluted 10-fold in DULBECCO's PBS and 1 ml was added to each assay tube. […] The supernatant fluid was decanted into 9 ml of AQUASOL-2 scintillation fluid and radioactivity counted in a beta-counter. Each assay contains charcoal free controls, to which 1 ml PBS was added, for determination of total counts (BO), and antibody free controls for determination of non-specific binding. Percent specific binding was determined by subtracting the value for non-specific binding from the value of total antiserum binding and then dividing by the total radioactivity added.
Sensitivity of the antisera R674 (2nd bleed) was determined in the above RIA. The antiserum was diluted in PET/GEL buffer (1:12,000 final dilution in the 200 μl assay volume) as described above so that it binds 20-30% of the total radioactivity added. The same diluted stock was then used for all assay tubes within the same assay. […] The assay was set up on a competition basis. […]

| SMILES | effect on displacement |
| --- | --- |
| NC(N)=O [Urea] | without effect |
| N=C(N)NCCC[C@H](N)C(=O)O [arginine] | without effect |
